We go through one substance from patent publication US6949506B2, “Relaxin-like factor and methods and uses thereof” (BAS Medical, Inc., priority 1995, dated 2005).

Positions of bridges follow the written chain, without caps; N, C: chain ends. Chains are numbered I, II in the order given. No end group written: not given here.

Assay [1] addresses T1, uterine relaxin receptor (Mus musculus, UniProt Q6R6I7).
T1 construct: brain, and uterus (of estrogen primed mice); from tissue; host or cells: uterus of estrogen-primed mice, crude membranes
T1 sequence (Q6R6I7 1-758): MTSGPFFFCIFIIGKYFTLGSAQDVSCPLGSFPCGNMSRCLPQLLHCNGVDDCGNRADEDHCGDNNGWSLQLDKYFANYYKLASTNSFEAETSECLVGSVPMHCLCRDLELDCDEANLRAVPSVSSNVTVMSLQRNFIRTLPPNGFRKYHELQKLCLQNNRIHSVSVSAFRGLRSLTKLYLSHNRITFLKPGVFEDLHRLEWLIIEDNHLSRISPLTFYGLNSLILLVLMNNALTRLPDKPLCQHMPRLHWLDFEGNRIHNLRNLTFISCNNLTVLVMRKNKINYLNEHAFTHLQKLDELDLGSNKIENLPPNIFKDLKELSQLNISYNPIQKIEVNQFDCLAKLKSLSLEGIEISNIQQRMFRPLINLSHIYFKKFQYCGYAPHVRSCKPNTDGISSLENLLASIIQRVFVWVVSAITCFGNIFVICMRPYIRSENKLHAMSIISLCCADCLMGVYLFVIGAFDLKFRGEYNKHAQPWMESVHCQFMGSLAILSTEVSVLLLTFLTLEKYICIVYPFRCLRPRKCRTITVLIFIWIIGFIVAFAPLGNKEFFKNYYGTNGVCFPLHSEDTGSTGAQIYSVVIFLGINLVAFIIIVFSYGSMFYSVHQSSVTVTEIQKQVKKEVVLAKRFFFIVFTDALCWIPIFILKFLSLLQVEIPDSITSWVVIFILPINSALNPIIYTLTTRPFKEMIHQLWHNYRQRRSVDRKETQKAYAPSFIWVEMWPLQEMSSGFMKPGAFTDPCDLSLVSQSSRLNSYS
The experiment in a line: Relaxin-binding assay, mouse uterus crude membranes, porcine relaxin tracer. As to the method: Relaxin-binding assays were performed as described in Yang, et al., 1992, Endocrinology 130:179-185 and Büllesbach, et al., 1994, Endocrine. 2:1115-1120, using crude membrane preparations of mouse tissue. Mouse brains of 2 mice were collected into 15 ml of chilled buffer (25 mM HEPES, 0.14 M NaCl, 5.7 mM KCI, 0.2 mM phenylmethylsulfonyl-fluoride, and 80 mg/ml soybean trypsin inhibitor, pH 7.5) supplemented with sucrose (0.25 M, final concentration). The tissue was homogenized on ice for 10 s with a Polytron homogenizer (Brinlmann, Westbury, N.Y.) at setting 5. The homogenate was centrifuged at 700 rpm for 10 min at 4° C. and the supernatants were recentrifuged at 10,000×g for 1 h. The pellet was resuspended in 15 ml of ice cold binding buffer, 25 mM HEPES, 0.14 M NaCl, 5.7 mM KCI, 0.2 mM phenylmethylsulfonylfluoride, and 80 mg/ml soybean trypsin inhibitor, pH 7.5, supplemented with 1% bovine serum albumin, and centrifuged for 1 h at 10,000×g. […] The supernatant was discarded, the tip of the vial cut and counted in a γ-counter. Nonspecific binding was determined in the presence of 2 μl/ml of unlabeled competitor (0.33 μM). […]
Tissue specificity was determined using crude membrane preparations of leg muscles, kidneys, liver. brain, and uterus (of estrogen primed mice). […] Binding was based on protein concentration determined by Lowry.

Assay [2] concerns the target T2, insulin receptor (Homo sapiens, UniProt P06213).
T2 construct: crude membrane preparations of term placenta; from tissue; host or cells: term placenta, crude membranes
The experiment in a line: Insulin-receptor binding assay on crude membrane preparations of term placenta. As to conditions: term placenta crude membranes; 125I-iodo-TyrA14 porcine insulin tracer. The method, then:
Insulin-receptor binding assays were performed on crude membrane preparations of term placenta, as described in Hock and Hollenberg, 1980, J. Biol. Chem. 255:10731-10736, using ^125I-iodo-Tyr^A14 porcine insulin as tracer according to the method of Linde, et al., 1986, J. Chromatogr. 369:327-339.
The assays were performed in HMS-buffer (25 mM HEPES, 104 mM NaCl, 5 mM MgCl2, 0.2% bovine serum albumin; pH 7.4) in a total volume of 100 μl. Labeled insulin (50,000 cpm/assay, 150 pM) and variable amounts of insulin were incubated with crude membranes for 1 h at room temperature. Thereafter 1 ml of buffer was added, the membranes collected by centrifugation in a microcentrifuge at 14,000 rpm for 5 min, the supernatant discarded, and the tip of the Eppendorf vial cut off and counted in a γ-counter (Minigamma, LKB, Sweden). To determine nonspecific binding unlabeled insulin was used at a concentration of 2 μl/ml (0.33 μM) and nonspecific binding was usually below 10% of the total binding.

In assay [3] the test system is collagen expression, rheumatoid synovial fibroblasts (Strain No. RSF64). The experiment in a line: Inhibition of collagen expression by synovial fibroblasts. Type of assay: cell-based, human. As to conditions: 100 ng/ml (each); TGF-β-treated fibroblasts. As to the method:
The method for detecting and measuring collagen formation in the presence of relaxin described in Unemori and Amento, 1990, J. Biol. Chem. 265:10681-685 has been modified as follows to determine the ability of RLF, in vitro, to modulate the expression of collagen. Materials and Methods. Rheumatoid synovial fibroblasts (Strain No. […] The cells were simultaneously biosynthetically labelled with ^3H=[…] μCi/ml) in the presence of ascorbate and BAPN. After 24 hours, the conditioned media were collected and electrophoresed on 4-12% polyacrylamide gels (NOVEX) under reducing conditions. Gels were enhanced, dried, and exposed to X-ray films for 1-2 weeks. Collagen bands were identified on the X-ray films as bacterial collagenase-sensitive, proline-incorporating bands between 95-200 kDa. Band density was quantified by scanning densitometry and used as estimates of collagen expression.

Assay [4] concerns mouse brain relaxin receptor. The assay can be described thus: Relaxin-binding assay, mouse brain crude membranes, porcine relaxin tracer. The method, then: Relaxin-binding assays were performed as described in Yang, et al., 1992, Endocrinology 130:179-185 and Büllesbach, et al., 1994, Endocrine. 2:1115-1120, using crude membrane preparations of mouse tissue. Mouse brains of 2 mice were collected into 15 ml of chilled buffer (25 mM HEPES, 0.14 M NaCl, 5.7 mM KCI, 0.2 mM phenylmethylsulfonyl-fluoride, and 80 mg/ml soybean trypsin inhibitor, pH 7.5) supplemented with sucrose (0.25 M, final concentration). The tissue was homogenized on ice for 10 s with a Polytron homogenizer (Brinlmann, Westbury, N.Y.) at setting 5. The homogenate was centrifuged at 700 rpm for 10 min at 4° C. and the supernatants were recentrifuged at 10,000×g for 1 h. The pellet was resuspended in 15 ml of ice cold binding buffer, 25 mM HEPES, 0.14 M NaCl, 5.7 mM KCI, 0.2 mM phenylmethylsulfonylfluoride, and 80 mg/ml soybean trypsin inhibitor, pH 7.5, supplemented with 1% bovine serum albumin, and centrifuged for 1 h at 10,000×g. The crude membrane preparation was suspended in 1 ml of binding buffer and 40 μl was used per assay. The assay was performed using 40 μl of tracer (about 100,000 cpm of porcine relaxin tracer=150 pM) and 20 μl of relaxin at various concentrations. The assay was incubated for 1 h at room temperature, and the suspension diluted with 1 ml of wash buffer (25 mM HEPES, 0.14 M NaCl, 5.7 mM KCI, 1% bovine serum albumin, 0.01% NaN3) and centrifuged in Eppendorf centrifuge at 14,000 rpm for 10 min. The supernatant was discarded, the tip of the vial cut and counted in a γ-counter. Nonspecific binding was determined in the presence of 2 μl/ml of unlabeled competitor (0.33 μM). In a typical experiment the specific binding was between 25% and 40% of the total binding.

Consider “RLF: synthesized human relaxin-like factor, two-chain peptide (A and B chain, SEQ ID NOS:3 and 4), three disulfide links (alpha AAATNPARYCCLSGCTQQDLLTLCPY; beta PTPEMREKLCGHHFVRALVRVCGGPRWSTEA; disulfide I:11-II:10; also: two further disulfide bonds, places not given here)”, for which the “recognition by the uterine relaxin receptor” value in assay [1] was “barely recognizes”. Further, the “50% Binding” value was 10000 ng in assay [1] (tracer pRLX) and 200 ng in assay [4] (mouse brain, tracer pRLX). Further, the “binding to the insulin receptor” value in assay [2] is given as “does not bind with any significant degree”. For the same substance, the “decrease of TGF-β-stimulated collagen expression” value in assay [3] is on record as 17%. In addition, in assay [4] (mouse brain), the “crossreactivity with the brain relaxin receptor” value was “moderate crossreactivity”. Also, the “excess that displaces 50% of the relaxin tracer” value in assay [4] (mouse brain relaxin receptor preparation) is “hundred-fold”.
